Measurements reported in US20240158370A1, “CK1 alpha AND DUAL CK1 alpha / GSPT1 DEGRADING COMPOUNDS” (Innovo Therapeutics, Inc., priority 2022, published 2024).

Tests used:
Type in all cases: cell-based
CK1α = molecular target: T1, CK1α (Homo sapiens, UniProt P48729+Q96SW2); assay: HiBiT degradation assay, CK1α, Procedure A
T1 construct: CSNK1A1-HiBit KI HEK293(LgBit) Cells; host or cells: HEK293(LgBit) knock-in cells
Procedure, shortened: (§1)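 Cells in DMEM + 10% FBS were treated with compound in a ten-point dose response from 10 μM to 0.005 μM (0.1% DMSO) for six hours at 37° C. Lysis with Nano-Glo HiBiT detection reagent followed, with luminescence read. DC50 and Ymin came from a 4-parameter fit.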

Z-138 cells = assay: Z-138 Proliferation Assay (Cell Titer-Glo); details: 72 hours; for Ymin (%): % remaining (percent of DMSO control); for EC50: Homo sapiens, Cell Titer-Glo, 4-parameter curve fit
Procedure, shortened: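 Z-138 cells (4,000 cells/well, IMDM + 10% FBS) exposed 72 h to 10-point 1:2 compound dilutions from 10,000 nM top, 0.1% DMSO. Viability read by CellTiter-Glo luminescence; EC50 from 4-parameter fit of percent of DMSO control.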

GSPT1 [1] = molecular target: T2, GSPT1 (Homo sapiens, UniProt P15170+Q96SW2); assay: HiBiT degradation assay, GSPT1, Procedure A; parameters: HiBit-GSPT1 KI HEK293(LgBit) Cells; host or cells: HEK293(LgBit) knock-in cells
T2 sequence (P15170 whole entry): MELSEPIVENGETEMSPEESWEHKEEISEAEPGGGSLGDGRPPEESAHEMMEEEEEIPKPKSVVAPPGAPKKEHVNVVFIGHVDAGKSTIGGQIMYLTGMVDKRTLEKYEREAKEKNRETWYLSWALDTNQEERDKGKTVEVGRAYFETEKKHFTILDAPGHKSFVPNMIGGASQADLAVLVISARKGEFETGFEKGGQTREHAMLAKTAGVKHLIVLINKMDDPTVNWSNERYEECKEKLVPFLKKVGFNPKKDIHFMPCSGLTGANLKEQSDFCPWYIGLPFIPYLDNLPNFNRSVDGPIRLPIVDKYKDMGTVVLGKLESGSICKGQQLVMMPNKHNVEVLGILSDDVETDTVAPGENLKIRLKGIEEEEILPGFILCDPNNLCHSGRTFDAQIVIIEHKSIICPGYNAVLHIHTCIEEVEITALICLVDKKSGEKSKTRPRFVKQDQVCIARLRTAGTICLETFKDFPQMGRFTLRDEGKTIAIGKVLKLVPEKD
T2 sequence (Q96SW2 whole entry): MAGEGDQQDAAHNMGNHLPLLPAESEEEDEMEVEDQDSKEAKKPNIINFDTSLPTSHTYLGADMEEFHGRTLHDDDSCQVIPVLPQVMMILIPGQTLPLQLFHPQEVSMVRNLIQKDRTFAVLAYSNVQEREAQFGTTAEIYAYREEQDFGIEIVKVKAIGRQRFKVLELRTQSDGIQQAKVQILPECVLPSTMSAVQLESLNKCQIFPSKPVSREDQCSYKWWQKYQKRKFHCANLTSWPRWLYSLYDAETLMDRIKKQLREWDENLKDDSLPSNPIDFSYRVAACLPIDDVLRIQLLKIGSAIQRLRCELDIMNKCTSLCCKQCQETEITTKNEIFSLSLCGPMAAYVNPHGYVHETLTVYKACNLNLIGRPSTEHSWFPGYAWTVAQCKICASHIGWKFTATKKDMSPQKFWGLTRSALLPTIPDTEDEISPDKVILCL
T2 sequence (Q16531 whole entry partner): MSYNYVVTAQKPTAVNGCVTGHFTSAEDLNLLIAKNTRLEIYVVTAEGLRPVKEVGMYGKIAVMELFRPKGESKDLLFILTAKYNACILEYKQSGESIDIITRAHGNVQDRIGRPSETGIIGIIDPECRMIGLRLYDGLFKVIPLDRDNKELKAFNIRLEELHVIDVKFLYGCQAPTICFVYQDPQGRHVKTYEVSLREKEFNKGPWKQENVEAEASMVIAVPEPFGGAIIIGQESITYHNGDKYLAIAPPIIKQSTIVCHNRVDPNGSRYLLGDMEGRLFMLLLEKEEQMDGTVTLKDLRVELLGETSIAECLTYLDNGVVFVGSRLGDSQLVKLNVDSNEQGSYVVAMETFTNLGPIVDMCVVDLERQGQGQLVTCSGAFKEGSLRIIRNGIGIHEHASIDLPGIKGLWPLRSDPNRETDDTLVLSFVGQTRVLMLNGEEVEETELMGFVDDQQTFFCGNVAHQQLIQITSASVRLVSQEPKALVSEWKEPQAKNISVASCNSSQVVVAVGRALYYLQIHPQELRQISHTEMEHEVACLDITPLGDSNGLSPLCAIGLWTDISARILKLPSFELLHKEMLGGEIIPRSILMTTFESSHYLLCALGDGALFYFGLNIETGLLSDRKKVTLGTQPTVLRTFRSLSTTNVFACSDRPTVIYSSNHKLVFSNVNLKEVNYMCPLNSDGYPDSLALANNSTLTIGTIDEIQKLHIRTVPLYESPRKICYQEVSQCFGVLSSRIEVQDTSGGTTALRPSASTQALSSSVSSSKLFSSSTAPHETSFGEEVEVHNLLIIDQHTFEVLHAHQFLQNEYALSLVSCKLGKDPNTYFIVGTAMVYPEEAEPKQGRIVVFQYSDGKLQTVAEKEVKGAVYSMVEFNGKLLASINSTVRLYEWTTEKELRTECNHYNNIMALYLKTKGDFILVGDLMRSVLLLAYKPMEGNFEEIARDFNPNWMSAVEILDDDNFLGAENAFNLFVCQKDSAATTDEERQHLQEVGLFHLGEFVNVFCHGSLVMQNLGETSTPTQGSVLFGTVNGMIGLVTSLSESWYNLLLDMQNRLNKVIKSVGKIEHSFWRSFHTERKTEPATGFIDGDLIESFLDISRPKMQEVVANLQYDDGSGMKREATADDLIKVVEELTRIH
Procedure, shortened: as §1

GSPT1 [2] = molecular target: T2, GSPT1; assay: HiBiT degradation assay, GSPT1, Procedure B (Molt 4_hGSPT1_HiBIT cells); parameters: Molt 4_hGSPT1_HiBIT N-terminus tagged cells were generated using CRISPR technology; endogenous in cells; host or cells: Molt 4 cells, CRISPR-edited; details: six hours
Procedure, shortened: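 CRISPR N-terminal HiBiT-tagged Molt 4 cells at 1×10^6 cells/ml were treated 6 h at 37° C with compounds (10-point, 10 μM to 0.005 μM, 0.1% DMSO). Remaining HiBiT-GSPT1 was read by lytic luminescence; DC50 and Ymin (% remaining) from a 4-parameter fit.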

T1 sequence (P48729 whole entry): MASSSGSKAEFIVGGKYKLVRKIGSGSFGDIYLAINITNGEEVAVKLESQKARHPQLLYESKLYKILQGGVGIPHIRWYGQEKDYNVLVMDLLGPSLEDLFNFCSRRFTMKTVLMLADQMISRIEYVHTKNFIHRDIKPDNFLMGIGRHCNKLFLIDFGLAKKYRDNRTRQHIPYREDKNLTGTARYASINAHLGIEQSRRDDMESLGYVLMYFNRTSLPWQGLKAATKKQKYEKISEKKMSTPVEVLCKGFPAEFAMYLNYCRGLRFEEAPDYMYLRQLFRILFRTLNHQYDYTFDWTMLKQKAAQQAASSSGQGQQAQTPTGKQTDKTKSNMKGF
T1 sequence (Q96SW2 whole entry): as the sequence (Q96SW2 whole entry) above
T1 sequence (Q16531 whole entry partner): as the sequence (Q16531 whole entry partner) above

SMILES	CK1α Ymin (CK1α; six hours incubation)	DC50 (CK1α; six hours incubation) [nM]	DC50 (GSPT1 [1]; six hours incubation) [nM]	GSPT1 Ymin (GSPT1 [1]; six hours incubation)	CK1α Ymin (CK1α; six hours)	DC50 (CK1α; six hours) [nM]	DC50 (GSPT1 [1]; six hours) [nM]	GSPT1 Ymin (GSPT1 [1]; six hours)	DC50 (GSPT1 [2]) [nM]	GSPT1 Ymin (GSPT1 [2])	Ymin (%) (Z-138 cells)	EC50 (Z-138 cells) [nM]
Cn1cc(-c2ccc3c(c2)CN(C2CCC(=O)NC2=O)C3=O)nc1C1CCCCC1 (stereo not drawn) [Example 335, 3-(5-(2-cyclohexyl-1-methyl-1H-imidazol-4-yl)-1-oxoisoindolin-2-yl)piperidine-2,6-dione]	C (C = 0-10% remaining)	< 25	< 25	F (F = >75-100% remaining)	–	–	–	–	–	–	D (0-10% remaining)	10 to 100
O=C1CCC(N2Cc3cc(-c4ncn5c4-c4ccccc4C5)ccc3C2=O)C(=O)N1 (stereo not drawn) [Example 339, 3-(5-(5H-imidazo[5,1-a]isoindol-1-yl)-1-oxoisoindolin-2-yl)piperidine-2,6-dione]	C (C = 0-10% remaining)	< 25	< 25	F (F = >75-100% remaining)	–	–	–	–	–	–	D (0-10% remaining)	10 to 100
Cn1ncc(-c2ccc3c(c2)CN(C2CCC(=O)NC2=O)C3=O)c1-c1ccc2cc[nH]c2c1 (stereo not drawn) [Example 379]	–	–	–	–	C (C = 0-10% remaining)	< 25	≥ 25	F (F = >75-100% remaining)	–	–	D (0-10% remaining)	< 10
COc1ccc(-c2c(-c3ccc4c(c3)CN(C3CCC(=O)NC3=O)C4=O)cnn2C(F)F)c(Cl)c1 (stereo not drawn) [Example 518, 3-(5-(5-(2-chloro-4-methoxyphenyl)-1-(difluoromethyl)-1H-pyrazol-4-yl)-1-oxoisoindolin-2-yl)piperidine-2,6-dione]	–	–	–	–	C (C = 0-10% remaining)	< 25	< 25	F (F = >75-100% remaining)	–	–	D (0-10% remaining)	10 to 100
Cn1nc(-c2ccc3c(c2)CN(C2CCC(=O)NC2=O)C3=O)cc1C1CCC(F)(F)CC1 (stereo not drawn) [Example 546, 3-(5-(5-(4,4-difluorocyclohexyl)-1-methyl-1H-pyrazol-3-yl)-1-oxoisoindolin-2-yl)piperidine-2,6-dione]	–	–	–	–	D (D = >10- 25% remaining)	< 25	≥ 25	F (F = >75-100% remaining)	–	–	F (>25-50% remaining)	10 to 100
Cn1ncc(-c2ccc3c(c2)CN(C2CCC(=O)NC2=O)C3=O)c1C1CCCCC1 (stereo not drawn) [Example 588]	–	–	–	–	E (E = >25-75% remaining)	< 25	≥ 25	F (F = >75-100% remaining)	–	–	F (>25-50% remaining)	10 to 100
Cn1cnc(-c2ccc3c(c2)CN(C2CCC(=O)NC2=O)C3=O)c1C1CCCCC1 (stereo not drawn) [Example 594]	–	–	–	–	C (C = 0-10% remaining)	< 25	< 25	E (E = >25-75% remaining)	–	–	D (0-10% remaining)	< 10
Cn1nc(-c2ccc3c(c2)CN(C2CCC(=O)NC2=O)C3=O)nc1C1CCC(F)(F)CC1 (stereo not drawn) [Example 606, 3-(5-(5-(4,4-difluorocyclohexyl)-1-methyl-1H-1,2,4-triazol-3-yl)-1-oxoisoindolin-2-yl)piperidine-2,6-dione]	–	–	–	–	E (E = >25-75% remaining)	≥ 25	≥ 25	F (F = >75-100% remaining)	–	–	F (>25-50% remaining)	10 to 100
Cn1nc(-c2ccc3c(c2)CN(C2CCC(=O)NC2=O)C3=O)nc1C1CCCCC1 (stereo not drawn) [Example 614, 3-(5-(5-cyclohexyl-1-methyl-1H-1,2,4-triazol-3-yl)-1-oxoisoindolin-2-yl)piperidine-2,6-dione]	–	–	–	–	D (D = >10- 25% remaining)	≥ 25	≥ 25	F (F = >75-100% remaining)	–	–	F (>25-50% remaining)	10 to 100
Cc1c(-c2ccc3c(c2)CN(C2CCC(=O)NC2=O)C3=O)nc(C2CCOCC2)n1C (stereo not drawn) [Example 615, 3-(5-(1,5-dimethyl-2-(tetrahydro-2H-pyran-4-yl)-1H-imidazol-4-yl)-1-oxoisoindolin-2-yl)piperidine-2,6-dione]	–	–	–	–	C (C = 0-10% remaining)	< 25	< 25	F (F = >75-100% remaining)	–	–	E (>10-25% remaining)	10 to 100
Cn1nc(-c2ccc3c(c2)CN(C2CCC(=O)NC2=O)C3=O)nc1-c1ccc(C(F)(F)F)cc1 (stereo not drawn) [Example 619, 3-(5-(1-methyl-5-(4-(trifluoromethyl)phenyl)-1H-1,2,4-triazol-3-yl)-1-oxoisoindolin-2-yl)piperidine-2,6-dione]	–	–	–	–	E (E = >25-75% remaining)	< 25	≥ 25	F (F = >75-100% remaining)	–	–	F (>25-50% remaining)	10 to 100

The next lines start with results.

CK1α Ymin (CK1α; six hours incubation)	DC50 (CK1α; six hours incubation) [nM]	DC50 (GSPT1 [1]; six hours incubation) [nM]	GSPT1 Ymin (GSPT1 [1]; six hours incubation)	CK1α Ymin (CK1α; six hours)	DC50 (CK1α; six hours) [nM]	DC50 (GSPT1 [1]; six hours) [nM]	GSPT1 Ymin (GSPT1 [1]; six hours)	DC50 (GSPT1 [2]) [nM]	GSPT1 Ymin (GSPT1 [2])	SMILES	Ymin (%) (Z-138 cells)	EC50 (Z-138 cells) [nM]
–	–	–	–	C (C = 0-10% remaining)	< 25	≥ 25	F (F = >75-100% remaining)	–	–	O=C1CCC(N2Cc3cc(-c4cn(C(F)F)c(-c5ccccc5)n4)ccc3C2=O)C(=O)N1 (stereo not drawn) [Example 421, 3-(5-(1-(difluoromethyl)-2-phenyl-1H-imidazol-4-yl)-1-oxoisoindolin-2-yl)piperidine-2,6-dione]	F (>25-50% remaining)	10 to 100
–	–	–	–	D (D = >10- 25% remaining)	< 25	< 25	F (F = >75-100% remaining)	–	–	O=C1CCC(N2Cc3cc(-c4cnn(C(F)F)c4-c4ccccc4)ccc3C2=O)C(=O)N1 (stereo not drawn) [Example 422, 3-(5-(1-(difluoromethyl)-5-phenyl-1H-pyrazol-4-yl)-1-oxoisoindolin-2-yl)piperidine-2,6-dione]	D (0-10% remaining)	10 to 100
–	–	–	–	C (C = 0-10% remaining)	< 25	≥ 25	F (F = >75-100% remaining)	–	–	Cn1nc(-c2ccc3c(c2)CN(C2CCC(=O)NC2=O)C3=O)nc1-c1ccccc1 (stereo not drawn) [Example 519, 3-[5-(1-methyl-5-phenyl-1,2,4-triazol-3-yl)-1-oxo-isoindolin-2-yl]piperidine-2,6-dione]	E (>10-25% remaining)	10 to 100
–	–	–	–	C (C = 0-10% remaining)	< 25	≥ 25	F (F = >75-100% remaining)	–	–	CC(C)n1nc(-c2ccc3c(c2)CN(C2CCC(=O)NC2=O)C3=O)cc1-c1ccccc1 (stereo not drawn) [Example 550, 3-(5-(1-isopropyl-5-phenyl-1H-pyrazol-3-yl)-1-oxoisoindolin-2-yl)piperidine-2,6-dione]	D (0-10% remaining)	10 to 100
–	–	–	–	C (C = 0-10% remaining)	< 25	≥ 25	F (F = >75-100% remaining)	–	–	CC(C)n1nc(-c2ccc3c(c2)CN(C2CCC(=O)NC2=O)C3=O)nc1-c1ccccc1 (stereo not drawn) [Example 553, 3-(5-(1-isopropyl-5-phenyl-1H-1,2,4-triazol-3-yl)-1-oxoisoindolin-2-yl)piperidine-2,6-dione]	D (0-10% remaining)	10 to 100
–	–	–	–	C (C = 0-10% remaining)	< 25	–	–	≥ 25	F (F = >75-100% remaining)	O=C1CCC(N2Cc3cc(-c4cc(-c5ccccc5)n(C5CC5)n4)ccc3C2=O)C(=O)N1 (stereo not drawn) [Example 621, 3-(5-(1-cyclopropyl-5-phenyl-1H-pyrazol-3-yl)-1-oxoisoindolin-2-yl)piperidine-2,6-dione]	D (0-10% remaining)	< 10
–	–	–	–	D (D = >10- 25% remaining)	< 25	≥ 25	F (F = >75-100% remaining)	–	–	O=C1CCC(N2Cc3cc(-c4nc(-c5ccccc5)n(C(F)F)n4)ccc3C2=O)C(=O)N1 (stereo not drawn) [Example 703, 3-(5-(1-(difluoromethyl)-5-phenyl-1H-1,2,4-triazol-3-yl)-1-oxoisoindolin-2-yl) piperidine-2,6-dione]	E (>10-25% remaining)	10 to 100
–	–	–	–	C (C = 0-10% remaining)	< 25	< 25	F (F = >75-100% remaining)	–	–	O=C1CCC(N2Cc3cc(-c4nc(-c5ccccc5)n(C5CC5)n4)ccc3C2=O)C(=O)N1 (stereo not drawn) [Example 705, 3-(5-(1-cyclopropyl-5-phenyl-1H-1,2,4-triazol-3-yl)-1-oxoisoindolin-2-yl)piperidine-2,6-dione]	E (>10-25% remaining)	10 to 100
